Patent publication US7115648B2, “Indole-amide derivatives and their use as glycogen phosphorylase inhibitors” (AstraZeneca AB, priority 2002, dated 2006)

Assays:
conscious dogs = details: cited from earlier work
hepatocytes = details: cited from earlier work
db/db and ob/ob mice = details: dose related; cited from earlier work
[1] = molecular target: T1, Human recombinant liver glycogen phosphorylase a (hrl GPa) (Homo sapiens, UniProt P06737); test: Glycogen degradation multienzyme coupled assay (NADH fluorescence); assay type: biochemical; details: glycogen degradation direction
T1 sequence (P06737 1-847): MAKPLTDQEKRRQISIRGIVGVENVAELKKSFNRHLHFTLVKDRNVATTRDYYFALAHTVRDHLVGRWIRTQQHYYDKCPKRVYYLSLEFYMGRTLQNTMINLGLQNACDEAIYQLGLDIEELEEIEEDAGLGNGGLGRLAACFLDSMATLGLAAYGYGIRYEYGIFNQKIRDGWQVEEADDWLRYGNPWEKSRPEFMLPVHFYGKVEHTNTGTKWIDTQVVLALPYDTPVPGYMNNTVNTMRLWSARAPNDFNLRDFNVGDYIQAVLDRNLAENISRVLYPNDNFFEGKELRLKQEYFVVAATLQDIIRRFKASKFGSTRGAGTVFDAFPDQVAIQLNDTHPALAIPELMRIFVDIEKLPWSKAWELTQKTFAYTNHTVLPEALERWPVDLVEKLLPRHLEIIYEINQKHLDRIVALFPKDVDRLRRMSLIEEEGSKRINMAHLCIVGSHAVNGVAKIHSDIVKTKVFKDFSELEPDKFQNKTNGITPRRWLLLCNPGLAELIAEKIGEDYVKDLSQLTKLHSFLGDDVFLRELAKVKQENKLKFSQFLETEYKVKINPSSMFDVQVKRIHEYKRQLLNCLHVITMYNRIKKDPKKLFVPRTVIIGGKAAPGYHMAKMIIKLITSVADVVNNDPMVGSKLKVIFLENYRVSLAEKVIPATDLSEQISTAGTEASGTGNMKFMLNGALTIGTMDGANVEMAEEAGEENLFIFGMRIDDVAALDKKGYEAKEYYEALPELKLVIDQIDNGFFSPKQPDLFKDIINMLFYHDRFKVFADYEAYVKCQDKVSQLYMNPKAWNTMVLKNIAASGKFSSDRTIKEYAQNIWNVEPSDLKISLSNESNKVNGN
Procedure: The activity of the compounds is alternatively determined by measuring the inhibitory effect of the compounds on glycogen degradation, the production of glucose-1-phosphate from glycogen is monitored by the multienzyme coupled assay, as described in EP 0 846 464 A2, general method of Pesce et al (Pesce, M A, Bodourian, S H, Harris, R C, and Nicholson, J F (1977) Clinical Chemistry 23, […]). The reactions were in 384 well microplate format in a volume of 50 μl. The change in fluorescence due to the conversion of the co-factor NAD to NADH is measured at 340 nm excitation, 465 nm emission in a Tecan Ultra Multifunctional Microplate Reader. The reaction is in 50 mM HEPES, 3.5 mM KH2PO4, 2.5 mM MgCl2, 2.5 mM ethylene glycol-bis(b-aminoethyl ether) N,N,N′,N′-tetraacetic acid, 100 mM KCl, 8 mM D-(+)-glucose pH7.2, containing 0.5 mM dithiothreitol, the assay buffer solution. Human recombinant liver glycogen phosphorylase a (hrl GPa) 20 nM is pre-incubated in assay buffer solution with 6.25 mM NAD, 1.25 mg type III glycogen at 1.25 mg ml^−1 the reagent buffer, for 30 minutes. […] The non-inhibited activity of GPa is measured in the presence of 10 μl 5% DMSO in assay buffer solution and maximum inhibition measured in the presence of 5 mgs ml^−1 N-ethylmaleimide. […] Relative Fluoresence Units (RFUs) are measured at 340 nm excitation, 465 nm emission. […]

| Structure (SMILES) | arterial plasma glucose following a glucagon challenge (conscious dogs) | hepatic glucose output following a glucagon challenge (conscious dogs) | glucagon stimulated glycogenolysis (hepatocytes) | glucose output in hepatocytes (hepatocytes) | plasma glucose concentration (db/db and ob/ob mice) | IC50 [1] [nM] |
| --- | --- | --- | --- | --- | --- | --- |
| CCN1C(C)=C(C(=O)OC(C)C)C(c2ccccc2Cl)C2=C1COC2=O (stereo not drawn) [Bay R 3401] | reduced significantly | reduced significantly | – | – | – | – |
| CN(C)C(=O)[C@H](O)[C@H](Cc1ccccc1)NC(=O)c1cc2cc(Cl)ccc2[nH]1 [CP91149] | – | – | reduce | reduce | reduced, in a dose related manner | – |
| O=C(N[C@@H](Cc1ccc(F)cc1)C(=O)N1CCC(O)CC1)c1cc2cc(Cl)ccc2[nH]1 [CP320626] | – | – | reduce | reduce | reduced, in a dose related manner | – |
| O=C(NCC(=O)N(CCO)c1ccccc1)c1cc2cc(Cl)ccc2[nH]1 [Example 1, 5-Chloro-N-{2-[(2-hydroxyethyl)phenylamino]-2-oxoethyl}-1H-indole-2-carboxamide] | – | – | – | – | – | 550 |
